This note sets out measurements from patent publication US20230322770A1, “SUBSTITUTED HETEROARYL COMPOUNDS USEFUL AS INHIBITORS OF TLR9” (BRISTOL-MYERS SQUIBB COMPANY, priority 2020, published 2023).

This assay addresses T1, human TLR9 (Homo sapiens, UniProt Q9NR96).
T1 construct: host or cells: HEK-Blue cells (HEK293-derived reporter line)
T1 sequence (Q9NR96 26-1032): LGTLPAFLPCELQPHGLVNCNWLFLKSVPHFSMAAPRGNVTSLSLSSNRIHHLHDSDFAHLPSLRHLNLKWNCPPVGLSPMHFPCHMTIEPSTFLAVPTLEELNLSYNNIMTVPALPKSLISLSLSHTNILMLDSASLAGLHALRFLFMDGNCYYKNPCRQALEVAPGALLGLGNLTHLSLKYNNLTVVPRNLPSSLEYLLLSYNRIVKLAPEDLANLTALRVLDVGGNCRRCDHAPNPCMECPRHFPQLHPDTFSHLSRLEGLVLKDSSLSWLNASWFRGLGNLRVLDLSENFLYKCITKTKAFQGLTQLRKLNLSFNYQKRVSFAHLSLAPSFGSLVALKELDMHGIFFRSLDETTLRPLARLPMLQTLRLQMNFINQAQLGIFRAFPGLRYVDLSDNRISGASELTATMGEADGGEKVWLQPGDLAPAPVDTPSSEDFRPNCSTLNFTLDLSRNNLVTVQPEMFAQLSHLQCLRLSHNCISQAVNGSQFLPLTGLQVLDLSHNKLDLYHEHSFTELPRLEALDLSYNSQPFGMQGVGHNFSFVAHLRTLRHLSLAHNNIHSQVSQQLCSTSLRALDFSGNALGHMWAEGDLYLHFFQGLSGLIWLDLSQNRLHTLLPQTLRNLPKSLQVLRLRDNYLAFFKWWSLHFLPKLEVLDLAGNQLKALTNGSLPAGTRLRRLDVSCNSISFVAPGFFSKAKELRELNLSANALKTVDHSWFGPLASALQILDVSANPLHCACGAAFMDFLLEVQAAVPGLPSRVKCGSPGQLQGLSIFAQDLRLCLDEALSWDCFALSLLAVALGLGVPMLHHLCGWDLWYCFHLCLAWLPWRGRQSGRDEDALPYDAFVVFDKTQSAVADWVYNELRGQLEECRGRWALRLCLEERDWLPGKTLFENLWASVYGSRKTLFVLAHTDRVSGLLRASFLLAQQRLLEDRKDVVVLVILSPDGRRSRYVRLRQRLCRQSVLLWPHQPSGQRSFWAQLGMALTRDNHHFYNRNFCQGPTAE
Briefly: TLR9 inhibition reporter assay (HEK-Blue cells, SEAP reporter). As to conditions: HEK-Blue cells overexpressing human TLR9; stimulated with ODN2006 5 nM; SEAP after 22 hour incubation. The assay is classed as cell-based. The procedure:
TLR7/8/9 Inhibition Reporter Assays
HEK-Blue™-cells (Invivogen) overexpressing human TLR7, TLR8 or TLR9 receptors were used for screening inhibitors of these receptors using an inducible SEAP (secreted embryonic alkaline phosphatase) reporter gene under the control of the IFN-β minimal promoter fused to five NF-κB and AP-1-binding sites. Briefly, cells are seeded into Greiner 384 well plates (15000 cells per well for TLR7, 20,000 for TLR8 and 25,000 for TLR9) and then treated with test compounds in DMSO to yield a final dose response concentration range of 0.05 nM-50 μM. After a 30 minute compound pre-treatment at room temperature, the cells are then stimulated with a TLR7 ligand (gardiquimod at a final concentration of 7.5 μM), TLR8 ligand (R848 at a final concentration of 15.9 μM) or TLR9 ligand (ODN2006 at a final concentration of 5 nM) to activate NF-κB and AP-1 which induce the production of SEAP. After a 22 hour incubation at 37° C., 5% CO2, SEAP levels are determined with the addition of HEK-Blue™ Detection reagent (Invivogen), a cell culture medium that allows for detection of SEAP, according to manufacturer's specifications. The percent inhibition is determined as the % reduction in the HEK-Blue signal present in wells treated with agonist plus DMSO alone compared to wells treated with a known inhibitor.
Background: Reporter assays use an easily measured gene product as a stand-in for the process of interest.

As usually defined, the IC50 is the point on the concentration scale where inhibition reaches its midpoint.

`CC(C)CN1CCN(c2ccc(-c3cnc4cc(-c5ccc(S(C)(=O)=O)cc5)n(C)c4c3)cc2)CC1` [Example 6, 6-(4-(4-Isobutylpiperazin-1-yl)phenyl)-1-methyl-2-(4-(methylsulfonyl)phenyl)-1H-pyrrolo[3,2-b]pyridine]: the IC50 stood at 139 nM. On to `COc1ccc(-c2cc3ncc(-c4ccc(N5CCN(CC(C)(C)O)CC5)cc4)cc3n2C)cc1OC` [Example 4, 1-(4-(4-(2-(3,4-Dimethoxyphenyl)-1-methyl-1H-pyrrolo[3,2-b]pyridin-6-yl)phenyl)piperazin-1-yl)-2-methylpropan-2-ol], for which half-maximal inhibition (IC50) required 256 nM.
